Laboratory results from US5449752A, “Polypeptides with affinity to lipopolysaccharides and their uses” (Seikagaku Kogyo K.K., priority 1991, dated 1995).
Converted amounts (≈) assume the structure as drawn. Positions of bridges follow the written chain, without caps; N, C: chain ends. Residues, ends and D or L forms follow the SMILES beside them. No end group written: not given here.

Columns and labels:
[1] = tested on: HIV; assay: Antiviral activity against HIV in HIV-infected MT-4 cells (MTT method); format: cell-based, human immunodeficiency virus; details: for EC50 (concentration at which cell death due to HIV infection is 50% inhibited): HIV-infected MT-4 cells, MOI 0.001, 37° C., 5 days, MTT method
Description: The antiviral activity-against HIV of the polypeptide (1) synthesized in Example 1 as well as polypeptides (2), (3), (4), (7), (12), (13), (14), (20), (21) and (26) was tested and evaluated according to the following method.
(§1) HIV-infected MT-4 cells (2.5×10^4 cells/well, multiplicity of infection (MOI): 0.001) immediately after infection were added together with the test substance with various changes of the concentration to a 96-well microtitre plate. After incubation at 37° C. for 5 days in a CO2 incubator, the number of survivor cells was measured by the MTT method [Pauwels et al.; J. Virol. Methods, 20, 309-321 (1988)]. The antiviral activity is expressed as a concentration at which cell death due to HIV infection is 50% inhibited (EC50 : 50% effective concentration). On the other hand, in order to know the cytotoxicity of the test substance on the MT-4 cells, virus-noninfected cells are incubated, likewise as above, together with the test compound with various changes of the concentration. The cytotoxicity is expressed as 50% cytotoxic concentration […] due to the test substance. Further, the rough ratio of CC50 to EC50 (CC50 /EC50) is expressed as an effective ratio (SI=selectivity index).

[2] = tested on: MT-4 cells; assay: Cytotoxicity on virus-noninfected MT-4 cells (MTT method); format: cell-based; details: 37° C., 5 days
Description: as §1

Compound | EC50 (concentration at which cell death due to HIV infection is 50% inhibited) [1] [µg/mL] | CC50 (50% cytotoxic concentration) [2] [µg/mL] | selectivity in killing HIV infected cells (in words) ([1]; MT-4 cells, Table III) | selectivity index higher than for any of the known high endotoxin affinity compounds ([1]; compared with Tachyplesins and Polyphemusins of Table III) | SI (CC50 /EC50) ([1]; rough ratio of CC50 to EC50, MT-4 cells)
N=C(N)NCCC[C@H](NC(=O)[C@@H]1CSSC[C@H](NC(=O)[C@H](Cc2c[nH]c3ccccc23)NC(=O)[C@H](CCCNC(=N)N)NC(=O)[C@@H](N)CCCNC(=N)N)C(=O)N[C@@H](Cc2ccc(O)cc2)C(=O)N[C@@H](CCCNC(=N)N)C(=O)N[C@@H](CCCCN)C(=O)N[C@H]2CSSC[C@H](NC(=O)[C@H](Cc3ccccc3)NC(=O)CNC(=O)[C@H](CCCCN)NC(=O)[C@H](Cc3ccccc3)NC2=O)C(=O)N[C@@H](Cc2ccc(O)cc2)C(=O)N[C@@H](CCCNC(=N)N)C(=O)N[C@@H](CCCCN)C(=O)N1)C(N)=O [polypeptide (20), ArgArgTrpCysTyrArgLysCysPheLysGlyPheCysTyrArgLysCysArgNH2] (H-RRWCYRKCFKGFCYRKCR-NH2; disulfide 4-17, 8-13; N-terminus assumed) | 0.01 (≈ 0.00407 µM) | 54 (≈ 22 µM) | – | – | –
N=C(N)NCCC[C@H](NC(=O)[C@@H]1CSSC[C@H](NC(=O)[C@H](Cc2c[nH]c3ccccc23)NC(=O)[C@@H](N)CCCNC(=N)N)C(=O)N[C@@H](Cc2ccc(O)cc2)C(=O)N[C@@H](CCCNC(=N)N)C(=O)N[C@@H](CCCCN)C(=O)N[C@H]2CSSC[C@H](NC(=O)[C@H](Cc3ccccc3)NC(=O)CNC(=O)[C@H](CCCCN)NC(=O)[C@H](Cc3ccccc3)NC2=O)C(=O)N[C@@H](Cc2ccc(O)cc2)C(=O)N[C@@H](CCCNC(=N)N)C(=O)N[C@@H](CCCCN)C(=O)N1)C(N)=O [polypeptide (21), ArgTrpCysTyrArgLysCysPheLysGlyPheCysTyrArgLysCysArgNH2] (H-RWCYRKCFKGFCYRKCR-NH2; disulfide 3-16, 7-12; N-terminus assumed) | 0.08 (≈ 0.0348 µM) | 53 (≈ 23.1 µM) | – | – | –
N=C(N)NCCC[C@H](NC(=O)[C@@H]1CSSC[C@H](NC(=O)[C@H](Cc2c[nH]c3ccccc23)NC(=O)[C@@H](N)CCCNC(=N)N)C(=O)N[C@@H](Cc2ccc(O)cc2)C(=O)N[C@@H](CCCNC(=N)N)C(=O)N[C@@H](CCCCN)C(=O)N[C@H]2CSSC[C@H](NC(=O)[C@H](Cc3ccc(O)cc3)NC(=O)CNC(=O)[C@H](CCCCN)NC(=O)[C@H](Cc3ccc(O)cc3)NC2=O)C(=O)N[C@@H](Cc2ccc(O)cc2)C(=O)N[C@@H](CCCNC(=N)N)C(=O)N[C@@H](CCCCN)C(=O)N1)C(N)=O [polypeptide (26), ArgTrpCysTyrArgLysCysTyrLysGlyTyrCysTyrArgLysCysArgNH2] (H-RWCYRKCYKGYCYRKCR-NH2; disulfide 3-16, 7-12; N-terminus assumed) | 0.18 (≈ 0.0772 µM) | 165 (≈ 70.8 µM) | particularly selective | at least 7 fold | –
ArgArgTyrCysTyrArgLysCysTyrLysGlyTyrCysTrpArgLysCysArgNH2 (RRYCYRKCYKGYCWRKCR-NH2; cysteine pairing not given here) [polypeptide (7)] | 0.36 | 100 | – | – | 278
